Results on 42 molecules are retold here after patent US10774071B2, “PD-1/PD-L1 inhibitors” (Gilead Sciences, Inc., priority 2018, dated 2020).

Like-named read-outs stand apart in the source and are kept apart here.

The target in one assay is PD-1/PD-L1 (Homo sapiens (Human), UniProt Q9NZQ7). Nature of the assay: PD-1/PD-L1 biochemical protein-protein interaction assay (ALPHA). The class given is binding. The settings on record: read-out: IC50 PD-L1-PD1. On the procedure:
Compounds were tested in biochemical protein-protein interaction assays to determine if they can specifically block the interaction between the extracellular domains of PD-1/PD-L1 or CTLA/CD80. Binding of the protein pairs is measured using a bead based Amplified Luminescent Proximity Homogeneous Assay (ALPHA) platform. […] Final protein concentration in the assays were 0.3 nM (His tagged PD-L1), 2.5 nM (biotinylated Fc-PD-1), 1 nM (His tagged CTLA4) and 1 nM (biotinylated CD80).

The target in the next assay is PD-L1 (Homo sapiens (Human), UniProt Q9NZQ7). In words: PD-L1/PD-L1 dimerization biochemical protein-protein interaction assay (ALPHA). As to conditions: read-out: AC50 PDL1 Dimer 1 nM. The class given is binding.
Setting [1] is: 0.3 nM His tagged PD-L1, 2.5 nM biotinylated Fc-PD-1, Table 3B.
Where [2] appears, read: 0.5 nM His tagged PD-L1 and 0.5 nM FLAG tagged PD-L1, Table 4B.
[3] abbreviates: 0.3 nM His tagged PD-L1, 2.5 nM biotinylated Fc-PD-1, readings of 0.064 nM are equal to or less than 0.064 nM.
[4] abbreviates: 0.5 nM His tagged PD-L1 and 0.5 nM FLAG tagged PD-L1, Table 4A.

PD-1/PD-L1, sequence (Q9NZQ7 19-238): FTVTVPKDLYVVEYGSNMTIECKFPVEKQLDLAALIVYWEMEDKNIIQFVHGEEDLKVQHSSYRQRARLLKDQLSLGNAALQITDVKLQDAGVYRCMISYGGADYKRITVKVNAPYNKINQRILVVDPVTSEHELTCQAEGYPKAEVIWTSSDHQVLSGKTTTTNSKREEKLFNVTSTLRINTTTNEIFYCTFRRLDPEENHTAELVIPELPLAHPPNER
PD-L1, sequence (Q9NZQ7 19-238): as above
PD-L1, sequence (Q9NZQ7 19-238): as above

For `COc1nc(-c2cccc(-c3cccc4c3CC[C@@H]4Oc3nc(OCc4cc(F)cc(C#N)c4)c(CN4CC5(C(=O)O)CCC4CC5)cc3Cl)c2Cl)ccc1CNC[C@@H]1CCC(=O)N1` [B-30], the half-inhibitory concentration (IC50) at PD-1/PD-L1 (setting [1]) is 0.158 nM. On PD-L1 (setting [2]), the concentration at half-maximal activity (AC50) was determined as 58.3 nM. In the same order, the values of `COc1nc(O[C@H]2CCc3c(-c4cccc(-c5cc(C)c(CN6CC(C)(O)C6)c(OC)n5)c4Cl)cccc32)c(Cl)cc1CN1CC2(C(=O)O)CCC1CC2` [B-57] are 0.08 nM and 66.5 nM. `COc1cc(N[C@H]2CCc3c(-c4cccc(-c5ccc(CNC[C@@H]6CCC(=O)N6)c(OC)n5)c4Cl)cccc32)c(Cl)cc1CN1CC2(C(=O)O)CCC1CC2` [A-13]: the IC50 on PD-1/PD-L1 (setting [3]) was determined as 0.065 nM. For the same molecule, the concentration at half-maximal activity (AC50) at PD-L1 (setting [4]) was 48.8 nM.

Turning to `COc1nc(-c2cccc(-c3cccc4c3CC[C@@H]4Oc3nc(OC)c(CNC4(C(=O)O)CC4)cc3C(F)(F)F)c2Cl)ccc1CN1CC2(CCC(=O)N2)C1` [B-170], the IC50 at PD-1/PD-L1 (setting [1]) was determined as 0.064 nM. Further, at PD-L1 (setting [2]), the AC50 was 15.2 nM. As for `COc1nc(-c2cccc(-c3cccc4c3CC[C@@H]4Oc3nc(OC)c(CN4CC5CCC4(C(=O)O)CC5)cc3C(F)(F)F)c2Cl)ccc1CNC[C@@H]1CCC(=O)N1` [B-134], the IC50 at PD-1/PD-L1 (setting [1]) worked out at 0.064 nM. The concentration at half-maximal activity (AC50) on PD-L1 (setting [2]) was 0.727 nM. In the same order, the values of `CC[C@](C)(NCc1cc(C(F)(F)F)c(O[C@H]2CCc3c(-c4cccc(-c5ccc(CNC[C@@H]6CCC(=O)N6)c(OC)n5)c4Cl)cccc32)nc1OC)C(=O)O` [B-236] are 0.064 nM and 3.02 nM.

As to `COc1nc(-c2cccc(-c3cccc4c3CC[C@@H]4Oc3nc(OC)c(CNC4(C(=O)O)CC5CCC4C5)cc3Cl)c2Cl)ccc1CNC[C@@H]1CCC(=O)N1` (stereo partly shown) [B-139], on PD-1/PD-L1 (setting [1]), the IC50 was determined as 0.064 nM. For the same molecule, on PD-L1 (setting [2]), the AC50 was found to be 10.2 nM. In the same order, the values of `COc1nc(O[C@H]2CCc3c(-c4cccc(-c5ccc(CNC[C@@H]6CCC(=O)N6)c(OCC#N)n5)c4Cl)cccc32)c(C(F)(F)F)cc1CNC1(C(=O)O)CC1` [B-125] are 0.064 nM and 6.79 nM. The like results for `COc1nc(-c2cccc(-c3cccc4c3CC[C@@H]4Oc3nc(OC)c(CN4C[C@H](C(=O)O)[C@@H](C)C4)cc3Cl)c2Cl)ccc1CNC[C@@H]1CCC(=O)N1` [B-106] were, in that order, 0.064 nM and 41.3 nM. Consider `COc1nc(-c2cccc(-c3cccc4c3CC[C@@H]4Oc3nc(OC)c(CN4CCC[C@]4(C)C(=O)O)cc3C)c2Cl)ccc1CNC[C@@H]1CCC(=O)N1` [B-238], for which the IC50 at PD-1/PD-L1 (setting [1]) was 0.064 nM. Also, on PD-L1 (setting [2]), the AC50 came to 34.9 nM. For `COc1nc(-c2cccc(-c3cccc4c3CC[C@@H]4Nc3nc(OC)c(CN4CC5(C(=O)O)CCC4CC5)nc3C(F)(F)F)c2Cl)ccc1CNC[C@H]1CCC(=O)N1` [A-62], the concentration for half-maximal inhibition (IC50) on PD-1/PD-L1 (setting [3]) is not above 0.064 nM. Also, the AC50 on PD-L1 (setting [4]) worked out at 45.4 nM. With `COc1nc(-c2cccc(-c3cccc4c3CC[C@@H]4Oc3nc(OC)c(CN4C[C@@H]5CCC[C@]5(C(=O)O)C4)cc3Cl)c2Cl)ccc1CNC[C@@H]1CCC(=O)N1` [B-92], the IC50 on PD-1/PD-L1 (setting [1]) is 0.064 nM. In addition, on PD-L1 (setting [2]), the AC50 came out at 54.5 nM. In the same order, the values of `COc1nc(-c2cccc(-c3cccc4c3CC[C@@H]4Oc3nc(OC)c(CN4CC[C@@H](C(=O)O)C4)nc3C)c2Cl)ccc1CNC[C@@H]1CCC(=O)N1` [B-150] are 0.064 nM and 65.1 nM. As for `COc1nc(-c2cccc(-c3cccc4c3CC[C@@H]4Oc3nc(OC)c(CN4CC[C@@H](C(=O)NS(=O)(=O)C(F)F)C4)cc3Cl)c2Cl)ccc1CNC[C@@H]1CCC(=O)N1` [B-111], on PD-L1 (setting [2]), the AC50 is 139 nM. On the same count and under the same terms, the value for `COc1nc(-c2cccc(-c3cccc4c3CC[C@@H]4Oc3nc(OC)c(CN4CCC[C@@H](C(=O)NS(C)(=O)=O)C4)cc3Cl)c2Cl)ccc1CNC[C@@H]1CCC(=O)N1` [B-109] was 40.9 nM; that for `COc1nc(O[C@H]2CCc3c(-c4cccc(-c5cnc([C@@H](C)NC[C@H]6CCC(=O)N6)c(OC)n5)c4Cl)cccc32)c(Cl)cc1CN1CC[C@@H](C(=O)O)C1` [B-79] was 70.8 nM; that for `COc1nc(-c2cccc(-c3cccc4c3CC[C@@H]4Oc3nc(OCc4cncc(C#N)c4)c(CN4CC[C@@H](C(=O)O)C4)cc3Cl)c2Cl)ccc1CNC[C@@H]1CCC(=O)N1` [B-66] was 38.1 nM.

Consider `COc1nc(-c2cccc(-c3cccc4c3CC[C@@H]4Oc3nc(OC)c(CN4CCC[C@H]4C(=O)O)cc3Cl)c2Cl)ccc1CNC[C@@H]1CCC(=O)N1` [B-18], for which the AC50 at PD-L1 (setting [2]) amounted to 17.5 nM. For the molecule `COc1nc(-c2cccc(-c3cccc4c3CC[C@@H]4Nc3nc(OC)c(CNC4(C(=O)O)CC4)cc3C(F)(F)F)c2Cl)ccc1CN1CC2(CCC(=O)N2)C1` [A-23], the half-inhibitory concentration (IC50) on PD-1/PD-L1 (setting [3]) was not above 0.064 nM. For the molecule `CCS(=O)(=O)NC(=O)[C@@H]1CCN(Cc2cc(Cl)c(O[C@H]3CCc4c(-c5cccc(-c6ccc(CNC[C@@H]7CCC(=O)N7)c(OC)n6)c5Cl)cccc43)nc2OC)C1` [B-112], the concentration at half-maximal activity (AC50) on PD-L1 (setting [2]) came out at 170 nM.

As to `COc1nc(-c2cccc(-c3cccc4c3CC[C@@H]4Oc3nc(OC)c(CN4CCC[C@@]4(C)C(=O)O)cc3Cl)c2Cl)ccc1CNC[C@@H]1CCC(=O)N1` [B-17], the half-maximal activity concentration (AC50) at PD-L1 (setting [2]) was 4.29 nM. The same measure, in the same setting: the value for `CCOC(=O)C1CN(Cc2cc(Cl)c(O[C@H]3CCc4c(-c5cccc(-c6ccc(CNC[C@@H]7CCC(=O)N7)c(OC)n6)c5Cl)cccc43)nc2OC)C1` [B-105] was 783 nM. Still for that read-out and setting: the value for `COc1nc(-c2cccc(-c3cccc4c3CC[C@@H]4Oc3nc(OC)c(CN4CC(C(=O)NS(=O)(=O)C(F)F)C4)cc3Cl)c2Cl)ccc1CNC[C@@H]1CCC(=O)N1` [B-110] was 97.1 nM; that for `COc1nc(-c2cccc(-c3cccc4c3CC[C@@H]4Oc3nc(OC)c(CN[C@@H]4CCC[C@@H]4C(=O)O)cc3Cl)c2Cl)ccc1CNC[C@@H]1CCC(=O)N1` [B-53] was 31.1 nM; that for `COc1nc(-c2cccc(-c3cccc4c3CC[C@@H]4Oc3nc(OC)c(CN4CCC[C@@H]4C(=O)O)cc3Cl)c2Cl)ccc1CNC[C@@H]1CCC(=O)N1` [B-16] was 24.5 nM. For `COc1nc(-c2cccc(-c3cccc4c3CC[C@@H]4Oc3nc(OC)c(CN4CC[C@H](C(=O)NS(C)(=O)=O)C4)cc3Cl)c2Cl)ccc1CNC[C@@H]1CCC(=O)N1` [B-84], on PD-L1 (setting [2]), the half-maximal activity concentration (AC50) turned out to be 37.3 nM. On the same count and under the same terms, the same measure for `COc1nc(-c2cccc(-c3cccc4c3CC[C@@H]4Oc3nc(OC)c(CN4CC[C@@H](C(=O)NS(C)(=O)=O)C4)cc3Cl)c2Cl)ccc1CNC[C@@H]1CCC(=O)N1` [B-113]: 29.9 nM. Same read-out and setting: the value for `COc1nc(-c2cccc(-c3cccc4c3CC[C@@H]4Oc3nc(OCC#N)c(CN4CC5(C(=O)O)CCC4CC5)cc3Cl)c2Cl)ccc1CNC[C@@H]1CCC(=O)N1` [B-55] was 10.7 nM; that for `COc1nc(-c2cccc(-c3cccc4c3CC[C@@H]4Oc3nc(OCc4cncc(F)c4)c(CN4CC5(C(=O)O)CCC4CC5)cc3Cl)c2Cl)ccc1CNC[C@@H]1CCC(=O)N1` [B-33] was 14.7 nM. For the molecule `COC(=O)[C@@H]1CCN(Cc2cc(Cl)c(O[C@H]3CCc4c(-c5cccc(-c6ccc(CNC[C@@H]7CCC(=O)N7)c(OC)n6)c5Cl)cccc43)nc2OC)C1` [B-108], the AC50 at PD-L1 (setting [2]) came to 696 nM.

With `COc1nc(-c2cccc(-c3cccc4c3CC[C@@H]4Oc3nc(OC(F)F)c(CN4CC5(C(=O)O)CCC4CC5)cc3Cl)c2Cl)ccc1CNC[C@@H]1CCC(=O)N1` [B-40], at PD-L1 (setting [2]), the AC50 was found to be 48.6 nM.

As to `COc1nc(-c2cccc(-c3cccc4c3CC[C@@H]4Oc3nc(OC)c(CN4CC[C@@H](C(=O)NS(C)(=O)=O)C4)cc3Cl)c2Cl)ccc1CN1CC(C)(O)C1` [B-76], the AC50 at PD-L1 (setting [2]) came to 83.2 nM.

`COc1nc(-c2cccc(-c3cccc4c3CC[C@@H]4Oc3nc(OCc4cncc(C#N)c4)c(CN4CC[C@H](C(=O)O)C4)cc3Cl)c2Cl)ccc1CNC[C@@H]1CCC(=O)N1` [B-65]: at PD-L1 (setting [2]), the AC50 was 15.3 nM. On the same count and under the same terms, the value for `CCOc1nc(O[C@H]2CCc3c(-c4cccc(-c5ccc(CNC[C@@H]6CCC(=O)N6)c(OC)n5)c4Cl)cccc32)c(Cl)cc1CN1CC2(C(=O)O)CCC1CC2` [B-46] was 14.7 nM; that for `COc1nc(-c2cccc(-c3cccc4c3CC[C@@H]4Oc3nc(OC)c(CNC4(C(=O)O)CCOCC4)cc3Cl)c2Cl)ccc1CNC[C@@H]1CCC(=O)N1` [B-15] was 9.55 nM. Same read-out and setting: the value for `COc1nc(-c2cccc(-c3cccc4c3CC[C@@H]4Oc3nc(OC)c(CN4CC(C(=O)NS(C)(=O)=O)C4)cc3Cl)c2Cl)ccc1CN1CC(C)(O)C1` [B-75] was 93.8 nM; that for `COc1nc(-c2cccc(-c3cccc4c3CC[C@@H]4Oc3nc(OC)c(CNC4(C(=O)O)CC4)cc3Cl)c2Cl)ccc1CNC[C@@H]1CCC(=O)N1` [B-54] was 10.2 nM. Still for that read-out and setting: the value for `COc1nc(-c2cccc(-c3cccc4c3CC[C@@H]4Oc3nc(OCc4cncc(C#N)c4)c(CN4CC5(C(=O)O)CCC4CC5)cc3Cl)c2Cl)ccc1CNC[C@@H]1CCC(=O)N1` [B-67] was 30.3 nM; that for `COc1nc(-c2cccc(-c3cccc4c3CC[C@@H]4Oc3nc(OCc4cncc(Cl)c4)c(CNC4(C(=O)O)CC4)cc3C(F)(F)F)c2Cl)ccc1CNC[C@@H]1CCC(=O)N1` [B-29] was 4.08 nM.

Take `CCOc1nc(O[C@H]2CCc3c(-c4cccc(-c5ccc(CNC[C@@H]6CCC(=O)N6)c(OC)n5)c4Cl)cccc32)c(Cl)cc1CN1CC[C@H](C(=O)O)C1` [B-47]: at PD-L1 (setting [2]), the AC50 stood at 27.4 nM.

On to `COc1nc(-c2cccc(-c3cccc4c3CC[C@@H]4Oc3nc(OC)c(CN4CC(C(=O)O)C4)cc3Cl)c2Cl)ccc1CN1CC(C)(O)C1` [B-100], for which the AC50 on PD-L1 (setting [2]) came to 103 nM. On to `COc1nc(-c2cccc(-c3cccc4c3CC[C@@H]4Oc3nc(OC)c(CNC4(C(=O)O)CCC4)cc3Cl)c2Cl)ccc1CNC[C@@H]1CCC(=O)N1` [B-35], for which the AC50 at PD-L1 (setting [2]) came out at 9.06 nM.
